From PMC3526353 (The Journal of Experimental Medicine, 2012) come the findings set out here.

Structures are written as SMILES.

In general, Kd refers to the constant that tells how readily two partners part at equilibrium. Low values mean a tighter complex, high ones a looser complex.

For this test, the target named is receptor for advanced glycation end products (RAGE) (Homo sapiens, UniProt Q15109). Kind of test: SPR. Type of test: binding.
Sequence of receptor for advanced glycation end products (RAGE) (Q15109 23-342 limits assumed): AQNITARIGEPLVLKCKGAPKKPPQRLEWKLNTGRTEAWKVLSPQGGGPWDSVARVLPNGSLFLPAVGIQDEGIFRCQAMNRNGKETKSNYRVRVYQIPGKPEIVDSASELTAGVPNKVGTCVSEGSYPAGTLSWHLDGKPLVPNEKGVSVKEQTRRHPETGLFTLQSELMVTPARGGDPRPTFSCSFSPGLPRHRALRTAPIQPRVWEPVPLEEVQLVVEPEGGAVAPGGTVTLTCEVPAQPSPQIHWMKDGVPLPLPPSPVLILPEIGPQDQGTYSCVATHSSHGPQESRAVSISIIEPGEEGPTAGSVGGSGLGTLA

`CCCCCCCC/C=C\CCCCCCCC(=O)OC[C@@H](O)COP(=O)(O)O` [LPA, 1-oleoyl-2-hydroxy-sn-glycero-3-phosphate]: binding was put at a Kd of 84.9 nM.
